Test [1] addresses PI3Kβ (complex of human p110β and human p85α) (Homo sapiens (Human), UniProt P42338). The experiment in a line: PI3Kβ kinase assay (HTRF-based PI3K inhibition assay).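 As to all read-outs here: Kinase-made PIP3 detected by HTRF, displacing biotinylated PIP3 tracer from a complex of Europium anti-GST antibody, GST-fused PH domain and Streptavidin-APC, read as Europium-to-APC energy transfer.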 Particulars: for inhibition at 0.93 µM: 0.93 μM compound, read-out: PI3K beta average % Inhibition at 0.93 μM; for IC50: 10 μM ATP, 10 μM PIP2, 20 min at 22° C., read-out: average IC50 in the PI3K beta biochemical assay; for PI3K beta average IC50/PI3K alpha average IC50: ratio of beta IC50 to alpha IC50. Type of test: biochemical.
Text: (§1) Determination of % Inhibition and IC50 Values of Compounds in PI3Kα Kinase Assay
PI3Kα inhibitory activity of compounds of the present invention was quantified employing the HTRF based PI3K inhibition assay as described below.
(§2) As reagents for the kinase reaction itself and the quantification of the reaction product, the PI3-Kinase HTRF Assay kit from Millipore (#33-017) was used. With this kit the phosphatidylinositol 3,4,5-trisphosphate (PIP3) generated in the kinase reaction is detected by displacement of a biotinylated ligand from an energy transfer complex consisting of a Europium-labeled anti-GST monoclonal antibody, a GST-tagged PH domain, biotinylated PIP3 and Streptavidin-Allophycocyanin (APC).
For the assay 50 nL of a 80-fold concentrated solution of the test compound in DMSO was pipetted into a black low volume 384-well microtiter plate (Greiner Bio-One, Frickenhausen, Germany), 3 μl of a solution of PI3Kβ and phosphatidylinositol-4,5-bisphosphate (PIP2, 13.8 μM=> final conc. in 4 μl reaction volume=10 μM) in 1× reaction buffer (exact composition not disclosed by the vendor) were added and the mixture was incubated for 15 min at 22° C. to allow pre-binding of the test compounds to the enzyme before the start of the kinase reaction. The amount of PI3Kβ was chosen to have the enzyme reaction in the linear range and depended on the activity of the individual lot, typical concentrations in assay were in the range of 120 ng/mL. Then the kinase reaction was started by the addition of 1 μL of a solution of adenosine triphosphate (ATP, 40 μM=> final conc. in the 4 μl assay volume is 10 μM) in reaction buffer and the resulting mixture was incubated for a reaction time of 20 min at 22° C.
The reaction was stopped by the addition of 1 μL of an stop solution (containing the biotinylated PIP3 used as a tracer). Then 1 μL detection mix (containing a Europium-labeled anti-GST monoclonal antibody, a GST-tagged PH domain, and Streptavidin-Allophycocyanin) was added and resulting mixture was incubated for 3 h at 22° C. to allow the formation of complexes between the detection reagents and either the PIP3 generated in the kinase reaction, or the biotinylated PIP3 added with the stop solution. Subsequently the amount of energy transfer complex consisting of a Europium-labeled anti-GST monoclonal antibody, a GST-tagged PH domain, biotinylated PIP3 and Streptavidin-Allophycocyanin (APC) was evaluated by measurement of the resonance energy transfer from the Europium-labeled anti-GST monoclonal antibody to the Streptavidin-Allophycocyanin. Therefore, the fluorescence emissions at 620 nm and 665 nm after excitation at 350 nm were measured using a TR-FRET reader, e.g., a Pherastar (BMG Labtechnologies, Offenburg, Germany) or a Viewlux (Perkin-Elmer). The ratio of the emissions at 665 nm and at 622 nm were taken as the measure for the amount of biotinylated PIP3 bound to the GST-tagged PH domain, which is negatively correlated with the amount of PIP3 generated.

Test [2] concerns the target PI3Kα (complex of human p110α and human p85α) (Homo sapiens (Human), UniProt P42336). As to the kind of experiment: PI3Kα kinase assay (HTRF-based PI3K inhibition assay).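 As to all read-outs here: PIP3 product detected by HTRF, reading resonance energy transfer from Europium-labeled anti-GST antibody to Streptavidin-APC, as displacement of biotinylated PIP3 tracer from the GST-PH domain complex.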 The class given is biochemical. Particulars: for inhibition at 0.93 µM: 0.93 μM compound, read-out: PI3K alpha average % Inhibition at 0.93 μM; for IC50: 10 μM ATP, 10 μM PIP2, 20 min at 22° C., read-out: average IC50 in the PI3K alpha biochemical assay.
Text: as §1
PI3Kα inhibitory activity of compounds of the present invention was quantified employing the HTRF-based PI3K inhibition assay as described below.
as §2
For the assay 50 nL of a 80-fold concentrated solution of the test compound in DMSO was pipetted into a black low volume 384-well microtiter plate (Greiner Bio-One, Frickenhausen, Germany), 3 μL of a solution of PI3Kα and phosphatidylinositol-4,5-bisphosphate (PIP2, 13.8 μM=> final conc. in 4 μl reaction volume=10 μM) in 1× reaction buffer (exact composition not disclosed by the vendor) were added and the mixture was incubated for 15 min at 22° C. to allow pre-binding of the test compounds to the enzyme before the start of the kinase reaction. The amount of PI3Kα was chosen to have the enzyme reaction in the linear range and depended on the activity of the individual lot, typical concentrations in assay were in the range of 90 ng/mL. Then the kinase reaction was started by the addition of 1 μL of a solution of adenosine triphosphate (ATP, 40 μM=> final conc. in the 4 μL assay volume is 10 μM) in reaction buffer and the resulting mixture was incubated for a reaction time of 20 min at 22° C.
The reaction was stopped by the addition of 1 μL of an stop solution (containing the biotinylated PIP3 used as a tracer), then 1 μL detection mix (containing a Europium-labeled anti-GST monoclonal antibody, a GST-tagged PH domain, and Streptavidin-Allophycocyanin) was added and resulting mixture was incubated 3 h at 22° C. to allow the formation of complexes between the detection reagents and either the PIP3 generated in the kinase reaction, or the biotinylated PIP3 added with the stop solution. Subsequently, the amount of energy transfer complex consisting of a Europium-labeled anti-GST monoclonal antibody, a GST-tagged PH domain, biotinylated PIP3 and Streptavidin-Allophycocyanin (APC) was evaluated by measurement of the resonance energy transfer from the Europium-labeled anti-GST monoclonal antibody to the Streptavidin-Allophycocyanin. Therefore, the fluorescence emissions at 620 nm and 665 nm after excitation at 350 nm were measured using a TR-FRET reader, e.g., a Pherastar (BMG Labtechnologies, Offenburg, Germany) or a Viewlux (Perkin-Elmer). The ratio of the emissions at 665 nm and at 622 nm was taken as the measure for the amount of biotinylated PIP3 bound to the GST-tagged PH domain, which is negatively correlated with the amount of PIP3 generated.

Where only a bound is given, the exact number is not on record here.

Sequence of PI3Kα (complex of human p110α and human p85α) (P42336 whole entry, the tested form may be a part): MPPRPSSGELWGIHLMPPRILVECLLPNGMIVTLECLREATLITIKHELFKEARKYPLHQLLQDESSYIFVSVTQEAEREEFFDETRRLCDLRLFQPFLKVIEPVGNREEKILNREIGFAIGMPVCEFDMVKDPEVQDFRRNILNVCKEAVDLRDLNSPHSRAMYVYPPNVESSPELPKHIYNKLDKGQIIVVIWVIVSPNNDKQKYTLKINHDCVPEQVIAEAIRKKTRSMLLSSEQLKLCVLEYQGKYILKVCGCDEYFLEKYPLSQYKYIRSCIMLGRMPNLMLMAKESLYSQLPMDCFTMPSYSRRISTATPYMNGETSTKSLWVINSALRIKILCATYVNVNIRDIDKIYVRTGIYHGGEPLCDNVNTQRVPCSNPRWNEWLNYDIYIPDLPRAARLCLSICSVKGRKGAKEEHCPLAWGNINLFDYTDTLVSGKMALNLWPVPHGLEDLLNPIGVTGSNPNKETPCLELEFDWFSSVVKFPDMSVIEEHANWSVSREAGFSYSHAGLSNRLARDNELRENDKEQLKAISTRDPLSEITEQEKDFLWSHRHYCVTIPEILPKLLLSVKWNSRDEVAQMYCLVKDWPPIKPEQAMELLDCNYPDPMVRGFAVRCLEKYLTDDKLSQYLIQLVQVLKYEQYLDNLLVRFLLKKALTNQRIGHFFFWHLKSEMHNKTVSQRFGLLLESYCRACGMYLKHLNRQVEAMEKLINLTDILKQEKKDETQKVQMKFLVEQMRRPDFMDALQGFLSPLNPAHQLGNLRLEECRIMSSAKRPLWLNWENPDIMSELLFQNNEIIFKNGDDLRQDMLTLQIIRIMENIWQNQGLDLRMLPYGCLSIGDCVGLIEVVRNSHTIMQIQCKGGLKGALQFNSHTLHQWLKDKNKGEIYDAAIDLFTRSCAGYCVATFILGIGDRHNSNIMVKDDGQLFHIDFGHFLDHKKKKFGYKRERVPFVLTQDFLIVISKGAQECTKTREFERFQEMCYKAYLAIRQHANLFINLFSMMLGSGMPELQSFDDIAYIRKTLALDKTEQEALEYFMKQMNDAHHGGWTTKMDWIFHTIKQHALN
Sequence of PI3Kα (complex of human p110α and human p85α) (P27986 whole entry partner, the tested form may be a part): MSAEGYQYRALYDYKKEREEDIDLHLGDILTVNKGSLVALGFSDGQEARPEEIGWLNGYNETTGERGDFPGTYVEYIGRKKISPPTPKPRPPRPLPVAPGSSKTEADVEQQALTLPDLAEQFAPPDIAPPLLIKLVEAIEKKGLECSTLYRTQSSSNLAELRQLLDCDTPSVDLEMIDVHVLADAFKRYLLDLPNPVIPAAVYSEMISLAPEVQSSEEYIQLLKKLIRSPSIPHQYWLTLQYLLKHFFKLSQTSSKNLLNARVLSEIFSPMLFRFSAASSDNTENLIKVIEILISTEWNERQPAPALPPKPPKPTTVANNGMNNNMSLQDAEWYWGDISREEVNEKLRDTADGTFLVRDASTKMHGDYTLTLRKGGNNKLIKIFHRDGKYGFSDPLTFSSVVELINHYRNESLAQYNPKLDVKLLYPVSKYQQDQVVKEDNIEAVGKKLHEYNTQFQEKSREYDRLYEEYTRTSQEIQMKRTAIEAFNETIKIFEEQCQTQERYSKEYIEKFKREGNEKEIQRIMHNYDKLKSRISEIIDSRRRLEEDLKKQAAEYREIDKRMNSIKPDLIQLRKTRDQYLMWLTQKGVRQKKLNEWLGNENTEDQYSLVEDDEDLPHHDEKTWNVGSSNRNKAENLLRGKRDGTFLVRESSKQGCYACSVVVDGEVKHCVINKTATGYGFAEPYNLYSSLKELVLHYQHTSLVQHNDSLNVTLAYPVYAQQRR
Sequence of PI3Kβ (complex of human p110β and human p85α) (P42338 whole entry, the tested form may be a part): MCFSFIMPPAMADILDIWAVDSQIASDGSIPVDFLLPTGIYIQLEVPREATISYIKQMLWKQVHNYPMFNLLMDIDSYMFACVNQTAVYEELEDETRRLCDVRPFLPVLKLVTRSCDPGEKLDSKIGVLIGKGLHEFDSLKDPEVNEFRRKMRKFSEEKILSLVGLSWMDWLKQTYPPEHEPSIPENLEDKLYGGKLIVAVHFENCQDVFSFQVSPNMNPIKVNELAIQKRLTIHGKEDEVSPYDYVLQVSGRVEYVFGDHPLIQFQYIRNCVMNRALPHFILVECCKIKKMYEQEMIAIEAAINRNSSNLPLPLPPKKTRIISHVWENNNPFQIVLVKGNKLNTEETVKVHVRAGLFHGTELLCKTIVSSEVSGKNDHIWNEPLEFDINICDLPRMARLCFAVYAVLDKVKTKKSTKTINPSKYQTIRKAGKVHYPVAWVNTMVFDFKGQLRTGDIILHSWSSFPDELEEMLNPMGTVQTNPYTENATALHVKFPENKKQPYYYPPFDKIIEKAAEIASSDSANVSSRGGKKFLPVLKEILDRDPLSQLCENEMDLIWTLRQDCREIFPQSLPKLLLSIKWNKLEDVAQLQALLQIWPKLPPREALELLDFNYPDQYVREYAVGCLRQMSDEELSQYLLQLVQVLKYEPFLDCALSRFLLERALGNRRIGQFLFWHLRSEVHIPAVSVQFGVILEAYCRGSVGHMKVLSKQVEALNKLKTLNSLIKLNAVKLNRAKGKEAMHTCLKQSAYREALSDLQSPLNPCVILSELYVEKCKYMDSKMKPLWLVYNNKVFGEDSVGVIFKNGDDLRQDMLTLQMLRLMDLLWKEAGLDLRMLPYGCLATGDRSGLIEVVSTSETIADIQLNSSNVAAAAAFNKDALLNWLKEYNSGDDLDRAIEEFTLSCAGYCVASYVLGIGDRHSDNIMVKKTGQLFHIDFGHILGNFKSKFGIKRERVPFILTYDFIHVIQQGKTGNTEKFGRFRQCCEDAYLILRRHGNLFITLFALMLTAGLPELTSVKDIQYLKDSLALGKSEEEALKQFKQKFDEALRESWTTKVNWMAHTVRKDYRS
Sequence of PI3Kβ (complex of human p110β and human p85α) (P27986 whole entry partner, the tested form may be a part): as the sequence (P27986 whole entry partner, the tested form may be a part) above

With `COc1c(OCC(O)CN2CCOCC2)ccc2c1N=C(NC(=O)c1cccnc1)N1CCN=C21` (centres unmarked) [Comparative Example 1, N-{8-[2-hydroxy-3-(morpholin-4-yl)propoxy]-7-methoxy-2,3-dihydroimidazo[1,2-c]quinazolin-5-yl}pyridine-3-carboxamide, reference compound], the inhibition at 0.93 µM in test [1] was 92.1%; in test [2] it was 97.4%.
Turning to `COc1c(OC[C@H](O)CN2CCOCC2)ccc2c1N=C(NC(=O)c1cccnc1)N1CCN=C21` [Example 2, N-(8-{[(2R)-2-hydroxy-3-(morpholin-4-yl)propyl]oxy}-7-methoxy-2,3-dihydroimidazo[1,2-c]quinazolin-5-yl)pyridine-3-carboxamide], the inhibition at 0.93 µM is 94.4% in test [1] and 97.6% in test [2].
In the same order, the values of `COc1c(OC[C@@H](O)CN2CCOCC2)ccc2c1N=C(NC(=O)c1cccnc1)N1CCN=C21` [Example 3, N-(8-{[(2S)-2-hydroxy-3-(morpholin-4-yl)propyl]oxy}-7-methoxy-2,3-dihydroimidazo[1,2-c]quinazolin-5-yl)pyridine-3-carboxamide] are 92.9% and 103%.
With `COc1c(OC[C@H](O)CN2C[C@@H](C)O[C@@H](C)C2)ccc2c1N=C(NC(=O)c1cccnc1)N1CCN=C21` [Example 4, N-[8-({(2R)-3-[(2R,6S)-2,6-dimethylmorpholin-4-yl]-2-hydroxypropyl}oxy)-7-methoxy-2,3-dihydroimidazo[1,2-c]quinazolin-5-yl]pyridine-3-carboxamide], in test [1], the inhibition at 0.93 µM is 96.4%, the IC50 is over 0.05 µM and the “PI3K beta average IC50/PI3K alpha average IC50” value worked out at 4.85. In test [2], the inhibition at 0.93 µM was found to be 99.8% and the IC50 lay in the range of 0.01 to 0.05 µM.
Turning to `COc1c(OC[C@H](O)CN2CC3CCC(C2)O3)ccc2c1N=C(NC(=O)c1cccnc1)N1CCN=C21` [Example 5, N-(8-{[(2R)-2-hydroxy-3-(8-oxa-3-azabicyclo[3.2.1]oct-3-yl)propyl]oxy}-7-methoxy-2,3-dihydroimidazo[1,2-c]quinazolin-5-yl)pyridine-3-carboxamide], in test [1], the inhibition at 0.93 µM was 104%, the IC50 was in the range of 0.01 to 0.05 µM and the “PI3K beta average IC50/PI3K alpha average IC50” value came to 3.68. In test [2], the inhibition at 0.93 µM was 101% and the IC50 is under 0.01 µM.
Turning to `COc1c(OCC(O)CN2CCSCC2)ccc2c1N=C(NC(=O)c1cccnc1)N1CCN=C21` (centres unmarked) [Example 6, N-{8-[2-hydroxy-3-(thiomorpholin-4-yl)propoxy]-7-methoxy-2,3-dihydroimidazo[1,2-c]quinazolin-5-yl}pyridine-3-carboxamide], in test [1], the inhibition at 0.93 µM came out at 84.1% and the IC50 was over 0.05 µM. In test [2], the inhibition at 0.93 µM is 91.2% and the IC50 is under 0.01 µM.
On to `COc1c(OC[C@H](O)CN2CCC2)ccc2c1N=C(NC(=O)c1cccnc1)N1CCN=C21` [Example 7, N-(8-{[(2R)-3-(azetidin-1-yl)-2-hydroxypropyl]oxy}-7-methoxy-2,3-dihydroimidazo[1,2-c]quinazolin-5-yl)pyridine-3-carboxamide], for which, in test [1], the inhibition at 0.93 µM was 97.3%, the IC50 was over 0.05 µM and the “PI3K beta average IC50/PI3K alpha average IC50” value was 2.22. For the same compound, in test [2], the inhibition at 0.93 µM was found to be 99.5% and the IC50 was in the range of 0.01 to 0.05 µM.
On to `COc1c(OC[C@H](O)CN2CCCC2)ccc2c1N=C(NC(=O)c1cccnc1)N1CCN=C21` [Example 8, N-(8-{[(2R)-2-hydroxy-3-(pyrrolidin-1-yl)propyl]oxy}-7-methoxy-2,3-dihydroimidazo[1,2-c]quinazolin-5-yl)pyridine-3-carboxamide], for which, in test [1], the inhibition at 0.93 µM is 101%, the IC50 is 0.01 to 0.05 µM and the “PI3K beta average IC50/PI3K alpha average IC50” value is recorded as 2.62. Moreover, in test [2], the inhibition at 0.93 µM worked out at 102% and the IC50 was under 0.01 µM.
Take `COc1c(OC[C@H](O)CN2CCCCC2)ccc2c1N=C(NC(=O)c1cccnc1)N1CCN=C21` [Example 9, N-(8-{[(2R)-2-Hydroxy-3-(piperidin-1-yl)propyl]oxy}-7-methoxy-2,3-dihydroimidazo[1,2-c]quinazolin-5-yl)pyridine-3-carboxamide]: in test [1], the inhibition at 0.93 µM stood at 97.2%, the IC50 was in the range of 0.01 to 0.05 µM and the “PI3K beta average IC50/PI3K alpha average IC50” value came out at 2.02. Besides, in test [2], the inhibition at 0.93 µM is 104% and the 50% inhibitory concentration (IC50) was under 0.01 µM.
`COc1c(OCC(O)CN(C)C)ccc2c1N=C(NC(=O)c1cccnc1)N1CCN=C21` (centres unmarked) [Example 10, N-{8-[3-(dimethylamino)-2-hydroxypropoxy]-7-methoxy-2,3-dihydroimidazo[1,2-c]quinazolin-5-yl}pyridine-3-carboxamide]: in test [1], the inhibition at 0.93 µM worked out at 98.1%, the IC50 fell in the range of 0.01 to 0.05 µM and the “PI3K beta average IC50/PI3K alpha average IC50” value stood at 5.47. In addition, in test [2], the inhibition at 0.93 µM is 96.3% and the IC50 was under 0.01 µM.
On to `COc1c(OC[C@H](O)CN(C)C)ccc2c1N=C(NC(=O)c1cccnc1)N1CCN=C21` [Example 11, N-(8-{[(2R)-3-(dimethylamino)-2-hydroxypropyl]oxy}-7-methoxy-2,3-dihydroimidazo[1,2-c]quinazolin-5-yl)pyridine-3-carboxamide], for which, in test [1], the inhibition at 0.93 µM stood at 95.5%, the IC50 was 0.01 to 0.05 µM and the “PI3K beta average IC50/PI3K alpha average IC50” value was 1.60. Moreover, in test [2], the inhibition at 0.93 µM turned out to be 82% and the half-inhibitory concentration (IC50) was in the range of 0.01 to 0.05 µM.
Regarding `COc1c(OC[C@H](O)CN(C(C)C)C(C)C)ccc2c1N=C(NC(=O)c1cccnc1)N1CCN=C21` [Example 12, N-(8-{[(2R)-3-(dipropan-2-ylamino)-2-hydroxypropyl]oxy}-7-methoxy-2,3-dihydroimidazo[1,2-c]quinazolin-5-yl)pyridine-3-carboxamide], in test [1], the inhibition at 0.93 µM amounted to 115%, the IC50 is 0.01 to 0.05 µM and the “PI3K beta average IC50/PI3K alpha average IC50” value stood at 4.74. Besides, in test [2], the inhibition at 0.93 µM is 104% and the IC50 was under 0.01 µM.
In the same order, the values of `COc1c(OC[C@H](O)CN2CCOCC2)ccc2c1N=C(NC(=O)c1cccnc1C)N1CCN=C21` [Example 14, N-(8-{[(2R)-2-Hydroxy-3-(morpholin-4-yl)propyl]oxy}-7-methoxy-2,3-dihydroimidazo[1,2-c]quinazolin-5-yl)-2-methylpyridine-3-carboxamide] are 102%, 0.01 to 0.05 µM, 3.09, 104% and under 0.01 µM.
Take `COc1c(OC[C@H](O)CN2CCC2)ccc2c1N=C(NC(=O)c1cccnc1C)N1CCN=C21` [Example 16, N-(8-{[(2R)-3-(Azetidin-1-yl)-2-hydroxypropyl]oxy}-7-methoxy-2,3-dihydroimidazo[1,2-c]quinazolin-5-yl)-2-methylpyridine-3-carboxamide]: in test [1], the inhibition at 0.93 µM amounted to 87.7%, the IC50 lay within 0.01 to 0.05 µM and the “PI3K beta average IC50/PI3K alpha average IC50” value stood at 3.94. Further, in test [2], the inhibition at 0.93 µM came to 109% and the IC50 lay within 0.01 to 0.05 µM.
Take `COc1c(OC[C@H](O)CN2C[C@@H](C)O[C@@H](C)C2)ccc2c1N=C(NC(=O)c1cccnc1C)N1CCN=C21` [Example 17, N-[8-({(2R)-3-[(2R,6S)-2,6-dimethylmorpholin-4-yl]-2-hydroxypropyl}oxy)-7-methoxy-2,3-dihydroimidazo[1,2-c]quinazolin-5-yl]-2-methylpyridine-3-carboxamide]: in test [1], the inhibition at 0.93 µM worked out at 87.2%, the IC50 lay in the range of 0.01 to 0.05 µM and the “PI3K beta average IC50/PI3K alpha average IC50” value is 5.36. Also, in test [2], the inhibition at 0.93 µM was 109% and the IC50 is under 0.01 µM.
Taken in the same sequence, the figures for `COc1c(OC[C@H](O)CN2CCCC2)ccc2c1N=C(NC(=O)c1cccnc1C)N1CCN=C21` [Example 18, N-(8-{[(2R)-2-hydroxy-3-(pyrrolidin-1-yl)propyl]oxy}-7-methoxy-2,3-dihydroimidazo[1,2-c]quinazolin-5-yl)-2-methylpyridine-3-carboxamide] were 103%, 0.01 to 0.05 µM, 3.90, 96.9% and under 0.01 µM.
`COc1c(OC[C@H](O)CN2CCCCC2)ccc2c1N=C(NC(=O)c1cccnc1C)N1CCN=C21` [Example 19, N-(8-{[(2R)-2-Hydroxy-3-(piperidin-1-yl)propyl]oxy}-7-methoxy-2,3-dihydroimidazo[1,2-c]quinazolin-5-yl)-2-methylpyridine-3-carboxamide]: in test [1], the inhibition at 0.93 µM turned out to be 91.2%, the half-inhibitory concentration (IC50) was 0.01 to 0.05 µM and the “PI3K beta average IC50/PI3K alpha average IC50” value was found to be 2.78. Moreover, in test [2], the inhibition at 0.93 µM was determined as 103% and the IC50 was under 0.01 µM.
As for `COc1c(OC[C@H](O)CN(C(C)C)C(C)C)ccc2c1N=C(NC(=O)c1cccnc1C)N1CCN=C21` [Example 20, N-(8-{[(2R)-3-(dipropan-2-ylamino)-2-hydroxypropyl]oxy}-7-methoxy-2,3-dihydroimidazo[1,2-c]quinazolin-5-yl)-2-methylpyridine-3-carboxamide], in test [1], the inhibition at 0.93 µM turned out to be 98.6%, the IC50 was in the range of 0.01 to 0.05 µM and the “PI3K beta average IC50/PI3K alpha average IC50” value is on record as 4.20. In addition, in test [2], the inhibition at 0.93 µM was found to be 102% and the IC50 is under 0.01 µM.
Turning to `COc1c(OCC(O)CN2CCOCC2)ccc2c1N=C(NC(=O)c1ccc(N)nc1)N1CCN=C21` (centres unmarked) [Example 21, 6-amino-N-{8-[2-hydroxy-3-(morpholin-4-yl)propoxy]-7-methoxy-2,3-dihydroimidazo[1,2-c]quinazolin-5-yl}pyridine-3-carboxamide], in test [1], the IC50 was 0.01 to 0.05 µM and the “PI3K beta average IC50/PI3K alpha average IC50” value amounted to 9.37. The IC50 in test [2] is under 0.01 µM.

(Values after US8895549B2, “Aminoalcohol substituted 2,3-dihydroimidazo[1,2-c]quinazoline derivatives useful for treating hyper-proliferative disorders and diseases associated with angiogenesis” (Bayer Intellectual Property GmbH, priority 2010, dated 2014).)
